# Starred links: 1 amine or outer side, 2 acyl side, 3 side chain; linkers in the order of their positions; H or OH if unused. Positions of bridges follow the written chain, without caps; N, C: chain ends. Residues, ends and D or L forms follow the SMILES beside them. *: point of attachment. C18 diacid = O=C(O)CCCCCCCCCCCCCCCCC(=O)*; γGlu = O=C(O)[C@H](CCC(=O)[*:2])N[*:1]; AEEA = NCCOCCOCC(=O)O
# Experiments:
# [1] = Accelerated chemical stability (RP-UPLC recovery and LCMS degradation pattern, 37° C.); format: physicochemical; design: Isomers TZ / Isomers 2 W / Loss of 18 amu TZ / Loss of 18 amu 2 W / Fragments TZ / Fragments 2 W / Fragments 1 W / Fragments 3 W / Fragments 4 W / Fragments 5 W / Fragments 6 W / Others 1 W / Others 3 W / Others 4 W / Others 5 W / Others 6 W / Isomers 1 W / Isomers 3 W / Isomers 4 W / Isomers 5 W / Isomers 6 W / Loss of 18 amu 1 W / Loss of 18 amu 3 W / Loss of 18 amu 4 W / Loss of 18 amu 5 W / Loss of 18 amu 6 W: unit not given here; settings: LCMS; for Fragments 2 W / Isomers 2 W / Loss of 18 amu 2 W / Others 2 W: 2 weeks at 37° C.; for Fragments TZ / Isomers TZ / Loss of 18 amu TZ / Others TZ: time zero
# Protocol: In order to determine the chemical stability of CNP compounds in formulation, samples of CNP compounds in buffer were exposed to accelerated chemical degradation by heating. The stability of a given peptide was assessed by measuring recovery of intact peptide by quantification by RP-UPLC. To assess the chemical degradation pattern samples were also analysed by LC-MS.
# Sample preparation: Samples for the 2 week study were prepared according to the principles described in Example 5.
# Samples for the 6 week study were prepared by dissolving lyophilized peptide in buffer (8 mM phosphate, 250 mM glycerol, pH 7.4) to a nominal peptide concentration of 5000 nmol/ml followed by pH adjustment with 0.1 N HCl to pH 6.5.
# Incubation: For the 2 week study a time-zero (TZ) sample was pulled and stored at −18° C. and the remaining volume was incubated at 37° C. Samples were pulled and stored at −18° C. after 2 weeks of incubation. Frozen samples were thawed, diluted to about 200 nmol/mL and the extent of chemical degradation was determined using LCMS as described.
# For the 6 week study a time-zero (TZ) sample was pulled and stored at −18° C. and the remaining volume was incubated at 37° C. Samples were pulled on a weekly basis and stored at −18° C. until the last sampling time point at 6 weeks. Frozen samples were thawed, diluted to about 200 nmol/mL and the extent of chemical degradation was determined using RP-UPLC and LCMS as described.
# Analysis of peptide recovery by RP-UPLC: The RP-UPLC method was performed on a Waters ACQUITY H-CLASS UPLC system fitted with a PDA detector. Separation was carried out on an ACQUITY UPLC BEH C8 Column (130 Å, 1.7 μm, 2.1 mm×150 mm) operating at a column temperature of 50° C. with eluent A (19.59 mM NH4H2PO4 41.71 mM (NH4)2HPO4, pH 6.5 and MeCN 9:1 v:v) and eluent B (80% MeCN in water). UV-detection was carried out at 214 nm. The analysis was performed by injection of 3 μL of sample onto the column which was eluted with a 1-step linear gradient of eluents A and B from 27 to 30% B over 20 minutes followed by a wash at 95% B over 2 minutes followed by a re-equilibration phase for 7 minutes at a constant flow rate of 0.3 mL/min. This yielded an analysis time of 30 minutes per sample. The area of the peak corresponding to intact CNP compound was given on a percentage scale relative to the total peptide peak area.
# Analysis of chemical degradation patterns by LCMS: Samples were analysed on a […] UPLC from Thermo Scientific, using a Waters Acquity C18 reversed-phase column, 300 Å, […] particles 1 mm×150 mm. The compounds were separated by a linear gradient of solvent B from 5% to 55% over 48 minutes, using solvent A: water, 0.1% formic acid with 0.02% TFA and solvent B: acetonitrile, 0.1% formic acid with 0.02% TFA. Mass spectra were acquired by a Q Exactive Plus hybrid Quadrupole-Orbitrap mass spectrometer, BioPharma option (Thermo Scientific) interfaced with H-ESI II ion source. Data acquisitions were performed with a m/z 500 to 2000 scan range and a resolution of 30000.
# The data list was aggregated into a summed table of the compounds. The table headers were defined as follows: […]
# Results: The results from LCMS analysis of a 2 week accelerated degradation study on several CNP compounds of the present invention are summarised in Table 12. The results from RP-UPLC and LCMS analysis of a 6 week accelerated degradation study on CNP compound 9482 (Chem. 137) is summarised in Table 13 and Table 14 respectively.
# neprilysin (NEP) = neprilysin (NEP) (Homo sapiens, UniProt P08473); assay: In vitro neprilysin stability; settings: recombinant human neprilysin (rhNEP), pH 7.4
# Protocol: Therefore, an in vitro neprilysin stability assay was set up to test the neprilysin mediated degradation of selected CNP compounds.
# Procedure: In short, the assay buffer consisted of PBS-buffer (pH 7.4, ThermoFisher Scientific) with a final concentration of 0.005% v/v tween 20 (Sigma-Aldrich). Recombinant human neprilysin (rhNEP; R&D Systems) and the CNP compounds were dissolved in assay buffer. Native CNP22 (0065, Chem. 1) was included as positive control on each day of incubation. Initially, the CNP compound (the final concentration was 1000 nM) was pre-incubated in assay buffer for 10 min at 37° C. The assay was started by adding either rhNEP (final concentration was 2 μg protein per mL) or assay buffer (adsorption experiment) and the incubation was conducted at 37° C. […] The mixture was centrifuged at 13000 rpm at 4° C. for 20 minutes. After centrifugation, one volume of supernatant was mixed with one volume of Milli-Q water.
# Analysis by LCMS: The mixture was analysed by LCMS using an Acquity UPLC Peptide CSH C18 analytical column from Waters (130 Å, 1.7 μm, 1*50 mm) operated at 60° C. A gradient elution was conducted with a Nexera UHPLC system (Shimadzu) using mobile phase A (consisting of Milli-Q water with 0.1% formic acid) and mobile phase B (consisting of acetonitrile with 0.1% formic acid). The flow was 0.3 ml/min. A zenoTOF 7600 mass spectrometer (Sciex) was used as detector and operated in positive electrospray ionisation mode. Data was recorded in full scan mode (m/z 300-1700).
# Calibration curves were prepared in assay buffer and treated as study samples. These samples were used for calculating the concentration of the relevant CNP compound in the in vitro samples. Quality control samples were included. For at least 75% of the standards and QCs, the deviation between nominal and calculated concentration was below 20%.
# All incubations were conducted in duplicate. Data was reported as percent remaining at 90 min (based on calculated concentrations) compared to the average concentration in the 0.5-minute time point samples.
# [2] = 8 mM sodium phosphate, 250 mM glycerol, pH 6.5
# [3] = 5 mM sodium acetate, 250 mM glycerol, pH 4
# [4] = 6 week study, 3 weeks at 37° C.
# [5] = 6 week study, 4 weeks at 37° C.
# [6] = 6 week study, 5 weeks at 37° C.
# [7] = 6 week study, 6 weeks at 37° C.
# Sequence of neprilysin (NEP) (P08473 whole entry): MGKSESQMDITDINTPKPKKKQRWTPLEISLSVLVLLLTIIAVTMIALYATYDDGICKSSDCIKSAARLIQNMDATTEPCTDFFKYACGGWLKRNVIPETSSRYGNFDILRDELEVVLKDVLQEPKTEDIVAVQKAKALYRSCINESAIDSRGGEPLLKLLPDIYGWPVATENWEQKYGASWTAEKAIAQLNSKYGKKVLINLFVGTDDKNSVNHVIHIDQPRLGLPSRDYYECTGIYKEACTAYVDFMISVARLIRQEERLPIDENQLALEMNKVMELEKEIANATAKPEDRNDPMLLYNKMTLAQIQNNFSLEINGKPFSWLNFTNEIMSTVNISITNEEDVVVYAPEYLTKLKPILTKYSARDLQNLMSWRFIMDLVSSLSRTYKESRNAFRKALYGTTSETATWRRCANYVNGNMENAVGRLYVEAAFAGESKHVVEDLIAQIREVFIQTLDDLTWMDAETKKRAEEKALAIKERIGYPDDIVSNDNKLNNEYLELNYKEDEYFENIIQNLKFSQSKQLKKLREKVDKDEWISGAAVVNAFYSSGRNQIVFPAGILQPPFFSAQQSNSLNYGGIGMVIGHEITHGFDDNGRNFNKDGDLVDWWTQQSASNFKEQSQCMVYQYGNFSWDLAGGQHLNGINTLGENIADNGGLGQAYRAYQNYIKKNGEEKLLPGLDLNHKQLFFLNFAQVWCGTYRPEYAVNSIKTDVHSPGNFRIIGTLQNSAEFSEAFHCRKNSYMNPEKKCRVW
compound,measurement,setting,value
CC[C@H](C)[C@@H]1NC(=O)[C@H](CCCNC(=N)N)NC(=O)[C@H](CC(=O)O)NC(=O)[C@H](CC(C)C)NC(=O)[C@@H]2CCCN2C(=O)[C@H](CC(C)C)NC(=O)CNC(=O)[C@H](Cc2ccccc2)NC(=O)[C@@H](NC(=O)CNC(=O)[C@H](CCC(N)=O)NC(=O)[C@H](CO)NC(=O)[C@H](CC(C)C)NC(=O)CNC(=O)[C@H](CCCCN)NC(=O)[C@H](CCCCN)NC(=O)[C@H](CCC(N)=O)NC(=O)[C@H](C)NC(=O)CNC(=O)[C@H](CCCCN)NC(=O)[C@H](Cc2ccc(O)cc2)NC(=O)[C@H](CCCCN)NC(=O)[C@H](CCCNC(=N)N)NC(=O)[C@H](C)NC(=O)COCCOCCNC(=O)COCCOCCNC(=O)COCCOCCNC(=O)COCCOCCNC(=O)CC[C@H](NC(=O)CC[C@H](NC(=O)CC[C@H](NC(=O)CC[C@H](NC(=O)CC[C@H](NC(=O)CCCCCCCCCCCCCCCCC(=O)O)C(=O)O)C(=O)O)C(=O)O)C(=O)O)C(=O)O)CSSC[C@@H](C(=O)O)NC(=O)CNC(=O)[C@H](CC(C)C)NC(=O)CNC(=O)[C@H](CO)NC(=O)[C@H](CC(C)C)NC(=O)[C@H](CO)NC(=O)CNC1=O [Compound 9407] ({C18 diacid-γGlu-γGlu-γGlu-γGlu-γGlu-AEEA-AEEA-AEEA-AEEA}-ARKYKGAQKKGLSQGCFGLPLDRIGSLSGLGC-OH; disulfide 16-32),Fragments 2 W,[1]; [2],0.7
same,Isomers 2 W,[1]; [2],1.1
same,Loss of 18 amu 2 W,[1]; [2],0
same,Others 2 W,[1]; [2],0.3%
same,Fragments TZ,[1]; [2],0
same,Isomers TZ,[1]; [2],0
same,Loss of 18 amu TZ,[1]; [2],0
same,Others TZ,[1]; [2],0.1%
same,"remaining at 1.5 h, 1000 nM",neprilysin (NEP),96.6%
CC[C@H](C)[C@@H]1NC(=O)[C@H](CCCNC(=N)N)NC(=O)[C@H](CC(=O)O)NC(=O)[C@H](CC(C)C)NC(=O)[C@@H]2CCCN2C(=O)[C@H](CC(C)C)NC(=O)CNC(=O)[C@H](Cc2ccccc2)NC(=O)[C@@H](NC(=O)CNC(=O)[C@H](CCC(N)=O)NC(=O)[C@H](CO)NC(=O)CNC(=O)CNC(=O)[C@H](CCCCN)NC(=O)[C@H](CCCCN)NC(=O)[C@H](CCC(N)=O)NC(=O)[C@H](C)NC(=O)CNC(=O)[C@H](CCCCN)NC(=O)[C@H](Cc2ccc(O)cc2)NC(=O)COCCOCCNC(=O)COCCOCCNC(=O)COCCOCCNC(=O)COCCOCCNC(=O)CC[C@H](NC(=O)CC[C@H](NC(=O)CCCCCCCCCCCCCCCCC(=O)O)C(=O)O)C(=O)O)CSSC[C@@H](C(=O)O)NC(=O)CNC(=O)[C@H](CC(C)C)NC(=O)CNC(=O)[C@H](CO)NC(=O)[C@H](CC(C)C)NC(=O)[C@H](CO)NC(=O)CNC1=O [Compound 9435] ({C18 diacid-γGlu-γGlu-AEEA-AEEA-AEEA-AEEA}-YKGAQKKGGSQGCFGLPLDRIGSLSGLGC-OH; disulfide 13-29),Fragments 2 W,[1]; [3],0
same,Isomers 2 W,[1]; [3],0.6
same,Loss of 18 amu 2 W,[1]; [3],4.1
same,Others 2 W,[1]; [3],0%
same,Fragments TZ,[1]; [3],0
same,Isomers TZ,[1]; [3],0
same,Loss of 18 amu TZ,[1]; [3],0
same,Others TZ,[1]; [3],0%
same,"remaining at 1.5 h, 1000 nM",neprilysin (NEP),93.2%
CC[C@H](C)[C@@H]1NC(=O)[C@H](CCCNC(=N)N)NC(=O)[C@H](CC(=O)O)NC(=O)[C@H](CC(C)C)NC(=O)[C@@H]2CCCN2C(=O)[C@H](CC(C)C)NC(=O)CNC(=O)[C@H](Cc2ccccc2)NC(=O)[C@@H](NC(=O)CNC(=O)[C@H](CO)NC(=O)[C@H](CO)NC(=O)[C@H](CC(C)C)NC(=O)CNC(=O)[C@H](CCCCN)NC(=O)[C@H](CCCCN)NC(=O)[C@H](CCC(N)=O)NC(=O)[C@H](C)NC(=O)CNC(=O)[C@H](CCCCN)NC(=O)[C@H](Cc2ccc(O)cc2)NC(=O)[C@H](CCCCN)NC(=O)[C@H](CCCNC(=N)N)NC(=O)[C@H](C)NC(=O)[C@H](CCC(N)=O)NC(=O)[C@@H]2CCCN2C(=O)[C@H](Cc2c[nH]cn2)NC(=O)[C@H](CCC(=O)O)NC(=O)[C@H](CCC(N)=O)NC(=O)CC[C@H](NC(=O)CC[C@H](NC(=O)CC[C@H](NC(=O)CC[C@H](NC(=O)CC[C@H](NC(=O)CCCCCCCCCCCCCCCCC(=O)O)C(=O)O)C(=O)O)C(=O)O)C(=O)O)C(=O)O)CSSC[C@@H](C(=O)O)NC(=O)CNC(=O)[C@H](CC(C)C)NC(=O)CNC(=O)[C@H](CO)NC(=O)[C@H](CC(C)C)NC(=O)[C@H](CO)NC(=O)CNC1=O [compound 9482] ({C18 diacid-γGlu-γGlu-γGlu-γGlu-γGlu}-QEHPQARKYKGAQKKGLSSGCFGLPLDRIGSLSGLGC-OH; disulfide 21-37),Fragments 1 W,"[1]; 6 week study, 1 week at 37° C.",0.20
same,Isomers 1 W,"[1]; 6 week study, 1 week at 37° C.",0.00
same,Loss of 18 amu 1 W,"[1]; 6 week study, 1 week at 37° C.",0.00
same,Others 1 W,"[1]; 6 week study, 1 week at 37° C.",0.30
same,Fragments 2 W,[1]; 6 week study,0.30
same,Isomers 2 W,[1]; 6 week study,0.60
same,Loss of 18 amu 2 W,[1]; 6 week study,0.10
same,Others 2 W,[1]; 6 week study,0.3%
same,Fragments 3 W,[1]; [4],0.50
same,Isomers 3 W,[1]; [4],1.20
same,Loss of 18 amu 3 W,[1]; [4],0.10
same,Others 3 W,[1]; [4],0.30
same,Fragments 4 W,[1]; [5],0.90
same,Isomers 4 W,[1]; [5],1.70
same,Loss of 18 amu 4 W,[1]; [5],0.20
same,Others 4 W,[1]; [5],0.50
same,Fragments 5 W,[1]; [6],0.80
same,Isomers 5 W,[1]; [6],2.40
same,Loss of 18 amu 5 W,[1]; [6],0.20
same,Others 5 W,[1]; [6],0.40
same,Fragments 6 W,[1]; [7],1.20
same,Isomers 6 W,[1]; [7],3.90
same,Loss of 18 amu 6 W,[1]; [7],0.30
same,Others 6 W,[1]; [7],0.50
same,Fragments TZ,[1]; 6 week study,0.00
same,Isomers TZ,[1]; 6 week study,0.00
same,Loss of 18 amu TZ,[1]; 6 week study,0.00
same,Others TZ,[1]; 6 week study,0.2%
